Test results published in patent publication US20210206817A1, “Metabolically Stable Apelin Analogs in the Treatment of Disease Mediated by the Apelin Receptor” (priority 2014, published 2021).

Legend:
rat apelin receptor-EGFP [1] = target: T1, rat apelin receptor-EGFP (Rattus norvegicus, UniProt Q9JHG3); assay: ERK1/2 phosphorylation (Alphascreen); format: cell-based
T1 construct: expressed in transfected cells
T1 sequence (Q9JHG3 1-377): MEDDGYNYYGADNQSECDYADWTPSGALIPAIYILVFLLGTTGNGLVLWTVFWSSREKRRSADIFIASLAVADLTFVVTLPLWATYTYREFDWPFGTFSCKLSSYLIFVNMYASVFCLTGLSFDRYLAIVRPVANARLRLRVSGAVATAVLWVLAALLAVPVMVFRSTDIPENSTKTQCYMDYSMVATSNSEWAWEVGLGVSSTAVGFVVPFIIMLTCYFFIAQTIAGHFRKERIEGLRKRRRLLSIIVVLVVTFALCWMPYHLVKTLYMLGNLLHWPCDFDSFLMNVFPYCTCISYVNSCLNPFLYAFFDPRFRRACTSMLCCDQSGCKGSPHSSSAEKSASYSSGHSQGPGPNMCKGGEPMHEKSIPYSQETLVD
Excerpt: ERK1/2 phosphorylation was then monitored by Alphascreen technology.

[2] = system: rat glomerular arterioles precontracted by Angiotensin II (AngII); assay: Diameter of glomerular arterioles precontracted by angiotensin II
Experimental: The left kidney of male rats was prepared for microdissection of arterioles as previously described (44). Glomerular arterioles were isolated under stereomicroscopic observation. The afferent and muscular efferent arterioles were isolated with the glomerulus and identify according their morphology and localization in the inner renal cortex as previously described by Helou et al. […] For these experiments afferent and muscular efferent arterioles were microdissected attached to the gomeruli. […] Arteriolar diameters were measured with Adobe Photoshop CS. Diameters were measured on a distance equal to about 100 μm upstream of the glomerulus and triplicate were performed for each arteriole. Calibration was made using a stage micrometer. The average diameter for each experimental condition was used for statistical analysis.

[3] = Stability in mouse plasma at 37° C.
Experimental: For each compound, the stock solution (100 μM in water) was diluted in plasma to a final incubation concentration of 5 μM. The incubation at 37° C. was stopped respectively at to and 4 h by adding one volume of ice cold acetonitrile containing 0.1% trifluoroacetic acid. The sample was vortexed for 1 min and then centrifuged at 4° C. before LC-MS injection of the supernatant. Analyses were performed on a Kinetex RP-C18 column (2.6 μm, 100 Å, 50×4.6 mm) using a linear gradient (solvent B in solvent A, solvent A: water/0.05% TFA; solvent B: acetonitrile; flow rate of 2 mL·min^−1: detection at 358 nm). The percentage of remaining test compound relative to t0 was measured by monitoring the peak area of the chromatogram.

[4] = system: rat aortic rings precontracted by noradrenaline (NA); assay: Isometric tension of aortic rings precontracted by noradrenaline; conditions: 100 μM
Experimental: The experiments were performed in rat aortic rings as previously described (39). […] The aortas were cleaned of excess connective tissue and fat and cut into rings of approximately 3-4 mm in length. Special care was taken to avoid damaging the luminal surface of the endothelium. […] One end of the aortic ring was connected to a tissue holder and the other to an isometric force transducer (EMKA Technologies, Paris, France). […] During equilibration period, the rings were washed every 30 min. Then, a first relaxation to acetylcholine (Ach, 10^−4 mol/L) was implemented to check the integrity or the absence of the endothelium in rings precontracted with NA (3×10^−8 mol/L). After rinsing with PSS to baseline tension, rings were equilibrated for 90 min. […] Each concentration of the drug was added at the maximal effect of the precedent concentration. The concentration-response curves were continuously recorded on a PC by means of IOX v 2.4 (EMKA Technologies, Paris) for further analysis (Datanalyst v2.1, EMKA Technologies, Paris).

rat apelin receptor-EGFP [5] = target: T1, rat apelin receptor-EGFP; assay: Inhibition of forskolin-induced cAMP production (HTRF); format: cell-based
Experimental: cAMP was quantified using the cAMP dynamic 2 assay kit (Cisbio Bioassays, Codolet, France) based on homogeneous time-resolved fluorescence (HTRF) technology. The stimulation was done in the stimulation buffer (HBSS, 5 mM Hepes, 0.1% BSA stabilizer, 1 mM IBMX, pH 7.4). Briefly, 2,000/well CHO cells stably expressing the rat apelin receptor-EGFP were added into 384-well plate and stimulated with 10^−6 M forskolin (FSK) and increasing concentrations (10^−14 to 10^−4 M) of apelins or its analogs for 30 min at room temperature. Cells were then lyzed, and cAMP levels were determined following manufacturer instructions.

[6] = system: water-deprived or euhydrated mice; assay: Plasma AVP after i.c.v. injection (RIA); format: in vivo, mouse
Experimental: Animals were killed 1 min after the injection, and trunk blood (0.5-1 ml) was collected in chilled tubes containing 50 μl of 0.3 M EDTA pH 7.4. […] RIA kit (Peninsula Laboratories International Inc, San Carlo, USA).

rat apelin receptor-EGFP [7] = target: T1, rat apelin receptor-EGFP; assay: Apelin receptor-EGFP internalization, confocal microscopy; format: cell-based
Experimental: The internalization assay was performed as described previously with CHO cells stably expressing the rat apelin receptor-EGFP (43). […] Cells were then mounted in Aquapolymount (Polysciences, Warrington, Pa., USA) for confocal microscopic analysis (Sec (42) for details).

[8] = system: anaesthesized normotensive Wistar rats; assay: Arterial blood pressure after i.v. injection; format: in vivo, rat
Experimental: The resulting solution was administered to the rats via a catheter inserted into the right femoral vein, and was immediately followed by 0.2 ml Krebs buffer alone to flush the venous catheter. An additional catheter was inserted into the right femoral artery, as previously described (47), for the monitoring of mean arterial blood pressure (MBP) as previously described (48). The arterial catheter was connected to a COBE CDX III pressure transducer (Phymep, Paris, France) linked to the Maclab system (Phymep, Paris, France). HR measurement was triggered by the blood pressure signal. BP was continuously recorded throughout the experiment. […] Mean AUC for each group were then calculated. Unpaired Student's t test was used to determine whether BP observed in response to substances administered […].) has statistically significant difference.

rat apelin receptor-EGFP [9] = target: T1, rat apelin receptor-EGFP; assay: [125I]pE13F radioligand binding on CHO membrane preparations
Experimental: Crude membrane preparation from CHO stably expressing the wild-type rat apelin receptor-EGFP, were prepared as previously described (39). […] The reaction was stopped by adding ice-cold binding buffer and filtered through glass microfiber filters (Whatman GF/C filters). Radioactivity was counted in Wizard 1470 Wallac gamma counter (Perkin Elmer, Turku, Finland).

[10] = 15 nmol i.v., listed as JFM V-01961

SMILES: CSCC[C@H](NC(=O)[C@@H]1CCCN1C(=O)CNC(=O)[C@H](CCCCN)NC(=O)[C@H](Cc1c[nH]cn1)NC(=O)[C@H](CO)NC(=O)[C@H](CC(C)C)NC(=O)[C@H](CCCNC(=N)N)NC(=O)[C@@H]1CCCN1C(=O)[C@H](CCCNC(=N)N)NC(=O)[C@H](CCC(N)=O)NC(=O)[C@H](CCCNC(=N)N)NC(=O)[C@H](CCCNC(=N)N)NC(=O)[C@H](Cc1ccccc1)NC(=O)[C@H](CCCCN)NC(=O)CCC(F)(F)C(F)(F)C(F)(F)C(F)(F)C(F)(F)C(F)(F)C(F)(F)C(F)(F)F)C(=O)N1CCC[C@H]1C(=O)N[C@@H](Cc1ccccc1)C(=O)O [JFM V-0196B]
- EC50 (rat apelin receptor-EGFP [1]): 0.89 ± 0.61 nM
- arteriolar diameter after application to Ang II-precontracted arterioles ([2]; 500 nM, 1 nM Ang II, from 12.97±0.50 μm): 13.88±0.45 μm
- vasorelaxant effect in the presence of L-NAME ([2]; L-NAME, NO synthase inhibitor): not significantly changed
- starting peptide remaining after 4 h ([3]; Table 4, mouse plasma, 37° C., 4 h): 100% of starting peptide after 4 h
- half-life at 5 μM ([3]; mouse, plasma): > 4 h
- vasorelaxing effect at maximal concentration [4]: 60±3%
- IC50 (rat apelin receptor-EGFP [5]): 3.13 ± 1.43 nM
- effect on plasma AVP levels in euhydrated mice ([6]; euhydrated mice, supramaximal dose 1 μg i.c.v.): no effect on plasma AVP levels
- maximal decrease in AVP release ([6]; water-deprived mice, 0.01 μg i.c.v.): −75%
- EC50 (rat apelin receptor-EGFP [7]): 0.41 ± 0.16 nM
- duration of the hypotensive effect, fold higher than K17F ([8]; 15 nmol i.v.): 27 fold
- maximal hypotensive response, fold higher than K17F ([8]; 15 nmol i.v.): 9 fold
- BP decrease at the plateau value after 30 min ([8]; 15 nmol i.v., after 30 min): 21 mmHg
- duration of the hypotensive effect, fold higher than K17F [8, 10]: 8 fold
- maximal hypotensive response, fold higher than K17F [8, 10]: 6.7 fold
- time of maximal hypotensive response after injection ([8]; 15 nmol/rat i.v.): 10 min
- Maximal decrease in BP (mmHg) ([8]; Table 5, 15 nmol i.v.): −52 mmHg
- Time For maximal BP decrease ([8]; Table 5, 15 nmol i.v.): 10 min
- Time to return to a plateau value ([8]; Table 5, 15 nmol i.v.): 33 min
- plateau value reached (in brackets) ([8]; Table 5, 15 nmol i.v.): −21 mmHg
- Ki (rat apelin receptor-EGFP [9]; Binding affinity Ki (nM), Table 7, additional experiments vs Table 2): 0.08 ± 0.01 nM
- Ki (rat apelin receptor-EGFP [9]; Ki for the apelin receptor (affinity), competition with [125I]pE13F, CHO membranes): 0.2 nM
- Ki (rat apelin receptor-EGFP [9]; [125I]pE13F binding I (nM), Table 2): 0.21 ± 0.27 nM
